Measurements from patent US5304369A, “Chlorohexidine adduct and method of preparing same” (Ivoclar AG, priority 1991, dated 1994).
In brackets after ≈: the same amount, converted by molar mass. Like-named read-outs stand apart in the source and are kept apart here. Values belong to the molecule of their own block, whether it stands above or below them.

Columns and labels:
Streptococcus mutans [1] = assay: Agar diffusion test with Streptococcus mutans (inhibiting zone diameters); assay type: cell-based; settings: for Antibacterial action (in words): 0.003 wt.-%; for Bactericidal effectiveness (in words): concentrations smaller than or equal to 0.01 wt.-%
Procedure: For this purpose, culture suspensions of Streptococcus mutans were added to a liquid Agar comprising yeast extract and dextrose. After the Agar plates had solidified, a hole of 10 mm diameter was cut out, into which 0.1 ml of the solution to be tested was poured in each case. After 24 hours of incubation at 37° C., the diameters of the inhibiting zones were measured for each sample, which were duplicated in each case.

[2] = background, cited from earlier work
[3] = Side-effects in use (bitter taste, discolorations, irritations of the mucosa)
[4] = Solubility in common solvents and reactive diluents; assay type: physicochemical
Streptococcus mutans [5] = settings: cited from earlier work
[6] = higher concentrations; cited from earlier work
[7] = 0.03 wt. %, 0.1 ml in 10 mm hole, 24 hours, 37° C.

Compound: [H]/N=C(\N/C(=N/[H])NCCCCCCNC(=N)NC(=N)Nc1ccc(Cl)cc1)Nc1ccc(Cl)cc1 [Solution A]
- zone of inhibition at 0.003 % (Streptococcus mutans [1]; Streptococcus mutans, 24 h, 0.003 wt. %, 0.1 ml in 10 mm hole, 24 hours, 37° C., * = Not effective, read-out: Inhibiting zone diameter): 11 mm
- zone of inhibition at 0.01 % (Streptococcus mutans [1]; Streptococcus mutans, 24 h, 0.01 wt. %, 0.1 ml in 10 mm hole, 24 hours, 37° C., read-out: Inhibiting zone diameter): 13 mm
- zone of inhibition at 0.03 % (Streptococcus mutans [1]; Streptococcus mutans, 24 h, 0.03 wt. %, 0.1 ml in 10 mm hole, 24 hours, 37° C., read-out: Inhibiting zone diameter): 17 mm
- Solubility (in words) ([2]; listed as digluconate): water-soluble

Compound: [F][Sn][F] [Solution C, stannous difluoride]
- Inhibiting zone diameter (Streptococcus mutans [1]; 0.003 wt. %, 0.1 ml in 10 mm hole, 24 hours, 37° C., * = Not effective): 10 mm
- Antibacterial action (in words) (Streptococcus mutans [1]): Not effective
- Antibacterial action (in words) (Streptococcus mutans [1]; listed as stannous difluoride): an antibacterial action can no longer be detected
- Inhibiting zone diameter (Streptococcus mutans [1]; 0.01 wt. %, 0.1 ml in 10 mm hole, 24 hours, 37° C.): 11 mm
- Inhibiting zone diameter (Streptococcus mutans [1]; [7]): 20 mm
- Antibacterial effectiveness (in words) (Streptococcus mutans [1]; 0.03 wt.-%): even stronger action

- Solubility ([4]; Acetone): 0.03 wt. %
- Solubility ([4]; Decandiol dimethacrylate (D3 MA)): < 0.005 wt. %
- Solubility ([4]; Ethanol): 0.005 wt. %
- Solubility ([4]; Ethyl acetate): 0.02 wt. %
- Solubility ([4]; Triethylene glycol dimethacrylate (SR-205)): < 0.005 wt. %
- Solubility ([4]; Water (pH value 2 to 9.7), read-out: Solubility): 300 µg/mL (≈ 594 µM)
- Solubility (in words) ([4]; common solvents): quite a low solubility
Compound: [H]/N=C(\N/C(=N/[H])NCCCCCCNC(=N)NC(=N)Nc1ccc(Cl)cc1)Nc1ccc(Cl)cc1 [chlorohexidine adduct, chlorohexidine hexahydrofluoride]
- Unwanted side-effects (bitter taste, discolorations of tooth materials, irritations of the mucosa) [3]: no unwanted side-effects
- Inhibiting zone diameter (Streptococcus mutans [1]; 0.003 wt. %, 0.1 ml in 10 mm hole, 24 hours, 37° C., * = Not effective, listed as Solution B): 12 mm
- Antibacterial effectiveness (in words) (Streptococcus mutans [1]; 0.01 to 0.003 wt.-%): still very high
- Inhibiting zone diameter (Streptococcus mutans [1]; 0.01 wt. %, 0.1 ml in 10 mm hole, 24 hours, 37° C., listed as Solution B): 15 mm
- Inhibiting zone diameter (Streptococcus mutans [1]; [7]): 17 mm
- Antibacterial effectiveness (in words) (Streptococcus mutans [1]; 0.03 wt.-%): comparable with that of chlorohexidine gluconate
- Antibacterial effectiveness (in words) (Streptococcus mutans [1]; 0.03 wt.-%, listed as adduct according to the invention): completely comparable
- Bactericidal effectiveness (in words) (Streptococcus mutans [1]): clearly superior to stannous difluoride

Compound: [H]/N=C(\N/C(=N/[H])NCCCCCCNC(=N)NC(=N)Nc1ccc(Cl)cc1)Nc1ccc(Cl)cc1 [chlorohexidine, 1,6-bis-(N^5-p-chlorophenyl-N'-diguanido)-hexane]
- Effectiveness against bacteria of the type Streptococcus mutans (in words) (Streptococcus mutans [5]): effective
- Bactericidal effect vis-a-vis Streptococcus mutans (in words) (Streptococcus mutans [5]; small concentrations): greatly weakened
- Bactericidal effectiveness (in words) (Streptococcus mutans [1]): clearly exceeded
- Dis-colorations of the tongue, teeth, prostheses and fillings [6]: can lead to unwanted dis-colorations

Compound: [H]/N=C(\N/C(=N/[H])NCCCCCCNC(=N)NC(=N)Nc1ccc(Cl)cc1)Nc1ccc(Cl)cc1 [diacetate]
- Solubility (in words) [2]: sparingly soluble
